Here are results for seven compounds from PubChem BioAssay AID1259407 (Chemical Carcinogenesis Research Information System (CCRIS), 2018).

In the series the test system is CCRIS mutagenicity, Ames/micronucleus/aberration tests. As to the kind of experiment: CCRIS mutagenicity studies.
Setting [1] is: Test System: AMES SALMONELLA TYPHIMURIUM, Strain/Indicator: TA97, Metabolic Activation: NONE, Method: PREINCUBATION
Where [2] appears, read: Test System: AMES SALMONELLA TYPHIMURIUM, Strain/Indicator: TA98, Metabolic Activation: NONE, Method: PREINCUBATION
Where [3] appears, read: Test System: AMES SALMONELLA TYPHIMURIUM, Strain/Indicator: TA98, Metabolic Activation: NONE, Method: STANDARD PLATE.
The mark [4] stands for this setting: Test System: AMES SALMONELLA TYPHIMURIUM, Strain/Indicator: TA100, Metabolic Activation: NONE, Method: PREINCUBATION
The mark [5] stands for this setting: Test System: AMES SALMONELLA TYPHIMURIUM, Strain/Indicator: TA100, Metabolic Activation: NONE, Method: STANDARD PLATE.
The mark [6] stands for this setting: Test System: AMES SALMONELLA TYPHIMURIUM, Strain/Indicator: TA1535, Metabolic Activation: NONE, Method: STANDARD PLATE.
Where [7] appears, read: Test System: AMES SALMONELLA TYPHIMURIUM, Strain/Indicator: TA1537, Metabolic Activation: NONE, Method: STANDARD PLATE.

Active and inactive are the calls of the source. The rule behind the calls is not given here.

Regarding `CCN(CC)CCCC(C)Nc1c2ccc(Cl)cc2nc2ccc(OC)cc12` (stereo not given), the mutagenic call (Test System: AMES SALMONELLA TYPHIMURIUM, Strain/Indicator: TA97, Metabolic Activation: HAMSTER, LIVER, S-9, AROCLOR 1254 (10%), Method: PREINCUBATION) was “active; positive”; the mutagenic call under setting [1] was “active; positive”; the mutagenic call (Test System: AMES SALMONELLA TYPHIMURIUM, Strain/Indicator: TA97, Metabolic Activation: RAT, LIVER, S-9, AROCLOR 1254 (10%), Method: PREINCUBATION) was “active; positive”; the mutagenic call (Test System: AMES SALMONELLA TYPHIMURIUM, Strain/Indicator: TA98, Metabolic Activation: HAMSTER, LIVER, S-9, AROCLOR 1254 (10%), Method: PREINCUBATION) was “active; positive”; the mutagenic call under setting [2] is “active; positive”; the mutagenic call under setting [3] is “inactive; negative”. Also, the mutagenic call reads like this: (Test System: AMES SALMONELLA TYPHIMURIUM, Strain/Indicator: TA98, Metabolic Activation: RAT LIVER S-9, AROCLOR 1254 (10%), Method: STANDARD PLATE) “active; positive”; (Test System: AMES SALMONELLA TYPHIMURIUM, Strain/Indicator: TA98, Metabolic Activation: RAT LIVER S-9, Method: STANDARD PLATE) “active; positive”; (Test System: AMES SALMONELLA TYPHIMURIUM, Strain/Indicator: TA98, Metabolic Activation: RAT, LIVER, S-9, AROCLOR 1254 (10%), Method: PREINCUBATION) “active; positive”; (Test System: AMES SALMONELLA TYPHIMURIUM, Strain/Indicator: TA100, Metabolic Activation: HAMSTER, LIVER, S-9, AROCLOR 1254 (10%), Method: PREINCUBATION) “inactive; negative”; under setting [4], “inactive; negative”; under setting [5], “inactive; negative”. Moreover, the mutagenic call runs as follows: (Test System: AMES SALMONELLA TYPHIMURIUM, Strain/Indicator: TA100, Metabolic Activation: RAT LIVER S-9, AROCLOR 1254 (10%), Method: STANDARD PLATE) “inactive; negative”; (Test System: AMES SALMONELLA TYPHIMURIUM, Strain/Indicator: TA100, Metabolic Activation: RAT LIVER S-9, Method: STANDARD PLATE) “inactive; negative”; (Test System: AMES SALMONELLA TYPHIMURIUM, Strain/Indicator: TA100, Metabolic Activation: RAT, LIVER, S-9, AROCLOR 1254 (10%), Method: PREINCUBATION) “inactive; negative”; (Test System: AMES SALMONELLA TYPHIMURIUM, Strain/Indicator: TA1535, Metabolic Activation: HAMSTER, LIVER, S-9, AROCLOR 1254 (10%), Method: PREINCUBATION) “inactive; negative”; (Test System: AMES SALMONELLA TYPHIMURIUM, Strain/Indicator: TA1535, Metabolic Activation: NONE, Method: PREINCUBATION) “inactive; negative”; under setting [6], “inactive; negative”. The mutagenic call by setting is: (Test System: AMES SALMONELLA TYPHIMURIUM, Strain/Indicator: TA1535, Metabolic Activation: RAT LIVER S-9, AROCLOR 1254 (10%), Method: STANDARD PLATE) “inactive; negative”; (Test System: AMES SALMONELLA TYPHIMURIUM, Strain/Indicator: TA1535, Metabolic Activation: RAT, LIVER, S-9, AROCLOR 1254 (10%), Method: PREINCUBATION) “inactive; negative”; under setting [7], “active; positive”; (Test System: AMES SALMONELLA TYPHIMURIUM, Strain/Indicator: TA1537, Metabolic Activation: RAT LIVER S-9, AROCLOR 1254 (10%), Method: STANDARD PLATE) “active; positive”; (Test System: E. COLI, Strain/Indicator: WP2 UVRA, Metabolic Activation: NONE, Method: STANDARD PLATE) “active; positive”; (Test System: E. COLI, Strain/Indicator: WP2 UVRA, Metabolic Activation: RAT LIVER S-9, AROCLOR 1254 (10%), Method: STANDARD PLATE) “inactive; negative”. Moreover, the mutagenic call is “active; positive” (Test System: MOUSE LYMPHOMA, Strain/Indicator: L5178Y(TK+/TK-), Metabolic Activation: NONE, Method: SUSPENSION/PLATE) and “inactive; negative” (Test System: MOUSE LYMPHOMA, Strain/Indicator: L5178Y(TK+/TK-), Metabolic Activation: RAT LIVER S-9, AROCLOR 1254 (25%), Method: SUSPENSION/PLATE).

On to `Cl[Si](Cl)Cl`, for which the mutagenic call (Test System: Mouse lymphoma, Strain/Indicator: L5178Y (tk+/tk-), Metabolic Activation: None, Method: Suspension/plate) was “inactive; negative” and the mutagenic call (Test System: Mouse lymphoma, Strain/Indicator: L5178Y (tk+/tk-), Metabolic Activation: Rat, Liver, S-9, Aroclor 1254, Method: Suspension/plate) is “inactive; negative”.

Take `Fc1cnc2cccc(F)c2c1`: for the setting “Test System: AMES SALMONELLA TYPHIMURIUM, Strain/Indicator: TA100, Metabolic Activation: RAT, LIVER, S-9, PHENOBARBITAL AND 5,6-BENZOFLAVONE, Method: PREINCUBATION”, the mutagenic call is “inactive; negative”.

Regarding `CC(=O)OCCO`, the mutagenic call is, setting by setting: under setting [3], “inactive; negative”; (Test System: AMES SALMONELLA TYPHIMURIUM, Strain/Indicator: TA98, Metabolic Activation: RAT, LIVER, MICROSOMES, Method: STANDARD PLATE) “inactive; negative”; under setting [5], “inactive; negative”; (Test System: AMES SALMONELLA TYPHIMURIUM, Strain/Indicator: TA100, Metabolic Activation: RAT, LIVER, MICROSOMES, Method: STANDARD PLATE) “inactive; negative”.

With `O=C1c2ccccc2C(=O)c2c(O)c(O)cc(O)c21`, the mutagenic call is “inactive; negative” under setting [2]; “inactive; negative” (Test System: AMES SALMONELLA TYPHIMURIUM, Strain/Indicator: TA98, Metabolic Activation: RAT, LIVER, S-9, AROCLOR 1254, Method: STANDARD PLATE); “inactive; negative” (Test System: AMES SALMONELLA TYPHIMURIUM, Strain/Indicator: TA98, Metabolic Activation: RAT, LIVER, S-9, PCB, Method: PREINCUBATION); “inactive; negative” under setting [4]; “inactive; negative” (Test System: AMES SALMONELLA TYPHIMURIUM, Strain/Indicator: TA100, Metabolic Activation: RAT, LIVER, S-9, AROCLOR 1254, Method: STANDARD PLATE); “inactive; negative” (Test System: AMES SALMONELLA TYPHIMURIUM, Strain/Indicator: TA100, Metabolic Activation: RAT, LIVER, S-9, PCB, Method: PREINCUBATION). For the same compound, the mutagenic call is “inactive; negative” under setting [6]; “inactive; negative” (Test System: AMES SALMONELLA TYPHIMURIUM, Strain/Indicator: TA1535, Metabolic Activation: RAT, LIVER, S-9, AROCLOR 1254, Method: STANDARD PLATE); “active; positive” (Test System: AMES SALMONELLA TYPHIMURIUM, Strain/Indicator: TA1537, Metabolic Activation: NONE, Method: PREINCUBATION); “active; positive” under setting [7]; “active; positive” (Test System: AMES SALMONELLA TYPHIMURIUM, Strain/Indicator: TA1537, Metabolic Activation: RAT, LIVER, S-9, AROCLOR 1254, Method: STANDARD PLATE); “active; positive” (Test System: AMES SALMONELLA TYPHIMURIUM, Strain/Indicator: TA1537, Metabolic Activation: RAT, LIVER, S-9, Method: PREINCUBATION). The mutagenic call (Test System: CHINESE HAMSTER V-79, Strain/Indicator: V-79/8-AZAGUANINE, Metabolic Activation: NONE, Method: STANDARD PLATE) was “active; positive” and the mutagenic call (Test System: UDS RODENT HEPATOCYTES, Strain/Indicator: THY INCORP (NON-S-PHASE), Method: AUTORADIOGRAPHY) was “active; positive”.

On to `O=CC(O)C(O)C(O)C(O)CO` (stereo not given), for which the mutagenic call is, setting by setting: under setting [1], “inactive; negative”; (Test System: AMES SALMONELLA TYPHIMURIUM, Strain/Indicator: TA97, Metabolic Activation: S-9, Method: PREINCUBATION) “inactive; negative”; (Test System: AMES SALMONELLA TYPHIMURIUM, Strain/Indicator: TA102, Metabolic Activation: NONE, Method: PREINCUBATION) “inactive; negative”; (Test System: AMES SALMONELLA TYPHIMURIUM, Strain/Indicator: TA102, Metabolic Activation: S-9, Method: PREINCUBATION) “inactive; negative”.

With `CNc1c(C)cc2ncccc2c1N`, the mutagenic call under setting [2] was “inactive; negative”; the mutagenic call (Test System: AMES SALMONELLA TYPHIMURIUM, Strain/Indicator: TA98, Metabolic Activation: RAT, LIVER, S-9, AROCLOR 1254, Method: PREINCUBATION) is “inactive; negative”; the mutagenic call under setting [4] is “inactive; negative”; the mutagenic call (Test System: AMES SALMONELLA TYPHIMURIUM, Strain/Indicator: TA100, Metabolic Activation: RAT, LIVER, S-9, AROCLOR 1254, Method: PREINCUBATION) was “inactive; negative”.
